The source of these data is patent US9682962B2, “Pyrazolyl pyrimidinamine compound and application thereof” (SHENYANG SINOCHEM AGROCHEMICALS R&D CO., LTD., priority 2013, dated 2017).

One assay has as its system wheat powdery mildew. In words: Protectant activity in vivo (whole plant), wheat powdery mildew. The settings on record: for control effect against wheat powdery mildew (%): protectant activity. As to the method: (§1) The method is as followed: The whole plant is used in this test. The compound is dissolved in a proper solvent to get mother solution. The proper solvent is selected from acetone, methanol, DMF and so on according to their dissolving capability to the sample. […] The testing solution is sprayed to the host plant by a special plant sprayer. The plant is inoculated with fungus after 24 hours. According to the infecting characteristic of fungus, the plant is stored in a humidity chamber and then transferred into greenhouse after infection is finished. And the other plants are placed in greenhouse directly.

For another assay, the system named is cucumber downy mildew. Put plainly: Protectant activity in vivo (whole plant), cucumber downy mildew. Conditions: protectant activity. On the procedure:
as §1

In a further assay the test system is cucumber anthracnose. Put plainly: Protectant activity in vivo (whole plant), cucumber anthracnose. The settings on record: protectant activity. As to the method:
as §1

Assay [1] relates to Green peach aphids (Myzus Persicae Sulzer). In words: Bioactivity test against green peach aphid (airbrush foliar spray). In kind it is in vivo. On the procedure: Compounds were dissolved in mixed solvent (acetone:methanol=1:1), and diluted to required concentration with water containing 0.1% of tween 80.
Diamond back moth, armyworm, peach aphid and carmine spider mite were used as targets and the method of spraying by airbrush was used for determination of insecticidal bioassays.
Method: Filter papers were put in culture dishes (Diameter=6 cm), and water was dripped on filter papers for preserving moisture. Green peach aphids (Myzus Persicae Sulzer) were maintained on cabbage. Leaves (Diameter=3 cm) of approximately 15-30 aphids were put in the culture dishes. Bioactivity tests were used the method of Airbrush Foliar Spray, pressure=10 psi (0.7 kg/cm2), spray volume=0.5 mL. The studies were conducted at […] 25±1 C in incubator cabinets with 60±5% RH. Survey the survival aphids after 48 h and calculate the death rates.

For `Cc1ncnc(NCCc2cnn(-c3ccc(C(F)(F)F)cc3)c2)c1Cl` [Compound 309], the “control effect against wheat powdery mildew (%)” value is 80% in the assay with wheat powdery mildew (6.25 mg/L), 85% with wheat powdery mildew (25 mg/L), 90% in the assay with wheat powdery mildew (100 mg/L) and 100% with wheat powdery mildew (400 mg/L).
For `COc1ccc(-n2cc(CCNc3nc(C)nc(C)c3Cl)cn2)cc1` [Compound 1424], the “control effect against cucumber downy mildew(%)” value is 98% in the assay with cucumber downy mildew (25 mg/L), 100% in the assay with cucumber downy mildew (50 mg/L), 100% with cucumber downy mildew (100 mg/L) and 100% with cucumber downy mildew (400 mg/L).
For the compound `Cc1ncnc(NCCc2cnn(C(C)(C)C)c2)c1Cl` [Compound 8], the “control effect against wheat powdery mildew (%)” value in the assay on wheat powdery mildew (100 mg/L) and in the assay on wheat powdery mildew (400 mg/L) was 100% in each case. The “control effect against cucumber anthracnose (%)” value in the assay on cucumber anthracnose (6.25 mg/L) is 60%; with cucumber anthracnose (25 mg/L), 80%; in the assay on cucumber anthracnose (100 mg/L) it was 90%; in the assay on cucumber anthracnose (400 mg/L), 100%.
For the compound `Cc1ncnc(NCCc2cnn(-c3ccc(Cl)cc3Cl)c2)c1Cl` [Compound 261], the “control effect against wheat powdery mildew (%)” value was determined as 50% in the assay on wheat powdery mildew (6.25 mg/L), 60% with wheat powdery mildew (25 mg/L), 80% in the assay with wheat powdery mildew (100 mg/L) and 100% in the assay with wheat powdery mildew (400 mg/L). In addition, the “control effect against cucumber downy mildew(%)” value in the assay with cucumber downy mildew (12.5 mg/L), in the assay with cucumber downy mildew (25 mg/L), with cucumber downy mildew (50 mg/L), in the assay on cucumber downy mildew (100 mg/L) and with cucumber downy mildew (400 mg/L) was 100% throughout.
Take `CCc1ncnc(NCCc2cnn(-c3ccc(Cl)cc3Cl)c2)c1Cl` [Compound 539]: the “control effect against cucumber downy mildew(%)” value in the assay with cucumber downy mildew (25 mg/L), in the assay with cucumber downy mildew (50 mg/L), in the assay on cucumber downy mildew (100 mg/L) and with cucumber downy mildew (400 mg/L) was 100% throughout.
In the case of `CCc1ncnc(NCCc2cnn(-c3ccc(C)cc3)c2)c1Cl` [Compound 575], the “Insecticidal activity against peach aphid (%)” value (“Insecticidal activity … (%)” below) was determined as 73% in assay [1] (10 mg/L), 88% in assay [1] (100 mg/L) and 92% in assay [1] (600 mg/L).
In the case of `Cc1ncnc(NCCc2cnn(-c3ccc(F)cc3)c2)c1Cl` [Compound 244], the “control effect against wheat powdery mildew (%)” value is on record as 50% with wheat powdery mildew (6.25 mg/L), 80% in the assay on wheat powdery mildew (25 mg/L), 100% with wheat powdery mildew (100 mg/L) and 100% in the assay with wheat powdery mildew (400 mg/L). In addition, the results for the “Insecticidal activity … (%)” value in assay [1] (10 mg/L), in assay [1] (100 mg/L) and in assay [1] (600 mg/L) were 65%, 71% and 91%, respectively.
For `CCc1ncnc(NCCc2cnn(-c3ccc(C(F)(F)F)cc3)c2)c1Cl` [Compound 587], the “Insecticidal activity … (%)” value in assay [1] (100 mg/L) was 93%; in assay [1] (600 mg/L), 100%.
For `FC(F)c1ncnc(NCCc2cnn(Cc3ccc(Cl)cc3)c2)c1Cl` [Compound 5935], the “control effect against cucumber downy mildew(%)” value came out at 50% in the assay on cucumber downy mildew (12.5 mg/L); 95% with cucumber downy mildew (25 mg/L); 100% in the assay on cucumber downy mildew (50 mg/L); 100% with cucumber downy mildew (100 mg/L); 100% with cucumber downy mildew (400 mg/L). Moreover, the “Insecticidal activity … (%)” value is reported as 61% in assay [1] (10 mg/L), 56% in assay [1] (100 mg/L) and 100% in assay [1] (600 mg/L).
In the case of `COc1ccc(-n2cc(CCNc3ncnc(C(F)F)c3Cl)cn2)cc1` [Compound 868], the “control effect against wheat powdery mildew (%)” value in the assay on wheat powdery mildew (6.25 mg/L), in the assay on wheat powdery mildew (25 mg/L), with wheat powdery mildew (100 mg/L) and with wheat powdery mildew (400 mg/L) was 100% in each case. Further, the “protectant activity against wheat powdery mildew in vivo” value in the assay on wheat powdery mildew (1.6 ppm) amounted to 80%. In addition, the “control effect against cucumber downy mildew(%)” value is 85% with cucumber downy mildew (12.5 mg/L); 100% with cucumber downy mildew (25 mg/L); 100% with cucumber downy mildew (50 mg/L); 100% with cucumber downy mildew (100 mg/L); 100% with cucumber downy mildew (400 mg/L).
With `CCc1ncnc(NCCc2cnn(-c3ccc(F)cc3)c2)c1Cl` [Compound 522], the “Insecticidal activity … (%)” value in assay [1] (10 mg/L) came to 33%; in assay [1] (100 mg/L) it was 96%; in assay [1] (600 mg/L), 100%.
`FC(F)c1ncnc(NCCc2cnn(-c3ccc(OC(F)(F)F)cc3)c2)c1Cl` [Compound 874]: the “control effect against wheat powdery mildew (%)” value with wheat powdery mildew (6.25 mg/L), with wheat powdery mildew (25 mg/L), in the assay on wheat powdery mildew (100 mg/L) and in the assay on wheat powdery mildew (400 mg/L) was 100% each time. Also, the “control effect against cucumber anthracnose (%)” value was found to be 0% with cucumber anthracnose (0.78 mg/L); 20% in the assay on cucumber anthracnose (1.56 mg/L); 60% with cucumber anthracnose (3.13 mg/L); 98% in the assay on cucumber anthracnose (6.25 mg/L); 100% in the assay with cucumber anthracnose (25 mg/L); 100% in the assay on cucumber anthracnose (100 mg/L). In addition, the “control effect against cucumber anthracnose (%)” value with cucumber anthracnose (400 mg/L) is 100%.
For `Cc1ncnc(NCCc2cnn(-c3c(Cl)cc(C(F)(F)F)cc3Cl)c2)c1Cl` [Compound 406], the “control effect against wheat powdery mildew (%)” value with wheat powdery mildew (6.25 mg/L) is on record as 90%; in the assay on wheat powdery mildew (25 mg/L), 98%; in the assay with wheat powdery mildew (100 mg/L) it was 100%; in the assay with wheat powdery mildew (400 mg/L), 100%. Moreover, the “Insecticidal activity … (%)” value in assay [1] (10 mg/L) was 28%; in assay [1] (100 mg/L) it was 95%; in assay [1] (600 mg/L), 100%.
Consider `CCc1ncnc(NCCc2cnn(-c3ncccc3Cl)c2)c1Cl` [Compound 4733], for which the entries for the “Insecticidal activity … (%)” value in assay [1] (10 mg/L), in assay [1] (100 mg/L) and in assay [1] (600 mg/L) were 88%, 100% and 100%, respectively. Besides, the “control against Green Peach Aphid (death rate)” value in assay [1] (10 ppm, after 48 h) is reported as “more than 80%”.
In the case of `FC(F)c1ncnc(NCCc2cnn(-c3ccc(Cl)cc3)c2)c1Cl` [Compound 815], the “control effect against wheat powdery mildew (%)” value in the assay with wheat powdery mildew (6.25 mg/L) was 80%; with wheat powdery mildew (25 mg/L) it was 100%; with wheat powdery mildew (100 mg/L), 100%; with wheat powdery mildew (400 mg/L), 100%. The “Insecticidal activity … (%)” value is recorded as 41% in assay [1] (10 mg/L), 94% in assay [1] (100 mg/L) and 100% in assay [1] (600 mg/L).
In the case of `Fc1ccc(-n2cc(CCNc3ncnc(C(F)F)c3Cl)cn2)cc1` [Compound 800], the “control effect against wheat powdery mildew (%)” value in the assay with wheat powdery mildew (6.25 mg/L) is given as 95%; in the assay with wheat powdery mildew (25 mg/L), 100%; in the assay on wheat powdery mildew (100 mg/L), 100%; with wheat powdery mildew (400 mg/L) it was 100%. Further, the “control effect against cucumber downy mildew(%)” value in the assay with cucumber downy mildew (25 mg/L) amounted to 98%; with cucumber downy mildew (50 mg/L), 100%; in the assay with cucumber downy mildew (100 mg/L) it was 100%; with cucumber downy mildew (400 mg/L), 100%. For the same compound, the results for the “Insecticidal activity … (%)” value in assay [1] (10 mg/L), in assay [1] (100 mg/L) and in assay [1] (600 mg/L) were 71%, 100% and 100%, respectively.
`Cc1ccc(-n2cc(CCNc3ncnc(C(F)F)c3Cl)cn2)cc1` [Compound 853]: the “control effect against cucumber downy mildew(%)” value with cucumber downy mildew (25 mg/L) was 80%; with cucumber downy mildew (50 mg/L), 100%; with cucumber downy mildew (100 mg/L) it was 100%; in the assay on cucumber downy mildew (400 mg/L), 100%.
On to `CCc1ncnc(NCCc2cnn(-c3ccc(OC)cc3)c2)c1Cl` [Compound 590], for which the “control effect against cucumber downy mildew(%)” value in the assay with cucumber downy mildew (25 mg/L), in the assay on cucumber downy mildew (50 mg/L), in the assay on cucumber downy mildew (100 mg/L) and in the assay on cucumber downy mildew (400 mg/L) was 100% throughout.
With `CCc1ncnc(NCCc2cnn(-c3ccc(OC(F)(F)F)cc3)c2)c1Cl` [Compound 596], the “control effect against wheat powdery mildew (%)” value in the assay with wheat powdery mildew (6.25 mg/L) amounted to 95%; in the assay on wheat powdery mildew (25 mg/L), 100%; in the assay with wheat powdery mildew (100 mg/L) it was 100%; with wheat powdery mildew (400 mg/L) it was 100%. For the same compound, the “control effect against cucumber anthracnose (%)” value with cucumber anthracnose (6.25 mg/L) is reported as 75%; in the assay with cucumber anthracnose (25 mg/L), 98%; with cucumber anthracnose (100 mg/L), 100%; with cucumber anthracnose (400 mg/L), 100%.
Turning to `COc1ccc(-n2cc(CCNc3ncnc(C)c3Cl)cn2)cc1` [Compound 312], the “control effect against wheat powdery mildew (%)” value in the assay on wheat powdery mildew (6.25 mg/L) turned out to be 95%; in the assay on wheat powdery mildew (25 mg/L) it was 100%; in the assay on wheat powdery mildew (100 mg/L) it was 100%; with wheat powdery mildew (400 mg/L), 100%. The “control effect against cucumber downy mildew(%)” value with cucumber downy mildew (25 mg/L), in the assay with cucumber downy mildew (50 mg/L), in the assay on cucumber downy mildew (100 mg/L) and in the assay with cucumber downy mildew (400 mg/L) was 100% each time.
